Measured values as given in ChEMBL document CHEMBL5036320, “Discovery of Icenticaftor (QBW251), a Cystic Fibrosis Transmembrane Conductance Regulator Potentiator with Clinical Efficacy in Cystic Fibrosis and Chronic Obstructive Pulmonary Disease” (J Med Chem, 2021).
≈ marks a conversion by molar mass, not a printed value.

What was measured:
[1] = Mean residence time in Sprague-Dawley rat at 3 mg/kg, po and 1 mg/kg, iv measured upto 48 hrs by LC-MS/MS analysis; format: ADME, organism-based; settings: in vivo
[2] = biological target: T1, Cystic fibrosis transmembrane conductance regulator (Homo sapiens, UniProt P13569); assay: Potentiation of wild-type CFTR (unknown origin) expressed in FRT cells assessed as chloride transport by measuring membrane potential in presence of forskolin relative to PG-01; format: cell-based; settings: filed as activator
Target sequence in this assay (P13569 whole entry, looked up): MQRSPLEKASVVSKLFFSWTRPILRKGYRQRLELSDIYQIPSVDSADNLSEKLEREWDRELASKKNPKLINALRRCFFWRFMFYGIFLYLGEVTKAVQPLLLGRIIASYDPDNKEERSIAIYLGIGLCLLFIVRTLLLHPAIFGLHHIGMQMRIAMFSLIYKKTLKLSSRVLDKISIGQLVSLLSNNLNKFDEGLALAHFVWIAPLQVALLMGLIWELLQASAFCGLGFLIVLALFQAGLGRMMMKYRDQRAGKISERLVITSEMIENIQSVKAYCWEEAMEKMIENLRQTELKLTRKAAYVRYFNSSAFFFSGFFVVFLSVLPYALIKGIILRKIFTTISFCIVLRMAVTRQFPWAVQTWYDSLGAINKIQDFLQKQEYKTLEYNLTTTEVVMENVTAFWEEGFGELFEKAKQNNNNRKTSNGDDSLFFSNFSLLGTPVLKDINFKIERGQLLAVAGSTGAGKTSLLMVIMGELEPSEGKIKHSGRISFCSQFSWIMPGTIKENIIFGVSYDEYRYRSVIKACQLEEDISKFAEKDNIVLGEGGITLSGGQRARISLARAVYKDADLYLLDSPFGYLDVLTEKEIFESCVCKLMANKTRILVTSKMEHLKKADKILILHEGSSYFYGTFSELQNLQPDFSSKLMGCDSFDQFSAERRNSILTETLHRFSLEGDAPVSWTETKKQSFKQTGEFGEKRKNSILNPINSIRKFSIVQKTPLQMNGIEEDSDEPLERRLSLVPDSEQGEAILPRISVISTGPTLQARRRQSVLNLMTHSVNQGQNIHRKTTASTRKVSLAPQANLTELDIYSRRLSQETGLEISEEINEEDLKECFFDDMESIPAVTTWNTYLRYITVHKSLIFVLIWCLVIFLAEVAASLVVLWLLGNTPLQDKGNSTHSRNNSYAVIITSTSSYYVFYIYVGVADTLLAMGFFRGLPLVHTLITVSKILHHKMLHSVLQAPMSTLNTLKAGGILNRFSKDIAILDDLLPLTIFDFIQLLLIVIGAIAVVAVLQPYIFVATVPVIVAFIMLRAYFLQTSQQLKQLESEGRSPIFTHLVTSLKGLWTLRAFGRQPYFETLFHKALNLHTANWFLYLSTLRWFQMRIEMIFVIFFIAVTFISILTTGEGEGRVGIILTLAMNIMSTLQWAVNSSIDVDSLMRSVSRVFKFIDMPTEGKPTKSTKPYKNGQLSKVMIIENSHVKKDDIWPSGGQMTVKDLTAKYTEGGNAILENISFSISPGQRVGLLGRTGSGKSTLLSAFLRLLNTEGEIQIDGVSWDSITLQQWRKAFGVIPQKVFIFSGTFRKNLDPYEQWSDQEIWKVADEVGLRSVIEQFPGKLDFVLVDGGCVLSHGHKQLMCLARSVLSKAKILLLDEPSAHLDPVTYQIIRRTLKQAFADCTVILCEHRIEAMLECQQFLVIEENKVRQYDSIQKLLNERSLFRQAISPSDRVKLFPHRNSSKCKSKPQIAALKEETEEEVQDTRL

[3] = biological target: T1, Cystic fibrosis transmembrane conductance regulator; assay: Potentiation of wild-type CFTR (unknown origin) expressed in FRT cells assessed as chloride transport by measuring membrane potential in presence of forskolin; format: cell-based
Target sequence in this assay (P13569 whole entry): as the sequence (P13569 whole entry, looked up) above

[4] = Volume of distribution in Sprague-Dawley rat at 3 mg/kg, po and 1 mg/kg, iv measured upto 48 hrs by LC-MS/MS analysis; format: ADME, organism-based; settings: in vivo
[5] = test system: Cystic fibrosis transmembrane conductance regulator (Homo sapiens), P13569 [G551D]; assay: Potentiation of CFTR G551D mutant (unknown origin) expressed in FRT cells assessed as chloride transport by measuring membrane potential in presence of forskolin relative to PG-01; format: cell-based; settings: filed as activator
[6] = Unbound Cmax in Sprague-Dawley rat at 3 mg/kg, po and 1 mg/kg, iv measured upto 48 hrs by LC-MS/MS analysis; format: ADME, organism-based; settings: in vivo
[7] = Clearance in Sprague-Dawley rat at 3 mg/kg, po and 1 mg/kg, iv measured upto 48 hrs by LC MS/MS analysis; format: ADME, organism-based; settings: in vivo
[8] = Cmax in Sprague-Dawley rat at 3 mg/kg, po and 1 mg/kg, iv measured upto 48 hrs by LC-MS/MS analysis; format: ADME, organism-based; design: dose 3 mg/kg, time <=48; settings: in vivo
[9] = Oral bioavailability in Sprague-Dawley rat at 3 mg/kg measured upto 48 hrs by LC-MS/MS analysis; format: ADME, organism-based; settings: in vivo
[10] = Drug metabolism in Sprague-Dawley rat bile assessed as glutathione adduct M8 formation at 1 mg/kg, po after 24 hrs by LC MS/MS analysis; format: ADME, organism-based; settings: in vivo
[11] = Plasma Protein binding in human incubated for 4 hrs by equilibrium dialysis method; format: ADME, cell-free
[12] = Solubility of the compound at pH 6.8; format: physicochemical; settings: buffer
[13] = biological target: T2, Cystic fibrosis transmembrane conductance regulator (Homo sapiens, UniProt P13569, F508DEL); assay: Potentiation of CFTR F508del mutant (unknown origin) expressed in CHO cells assessed as chloride transport by measuring membrane potential incubated for 5 to 30 mins in presence of forskolin by Quattro assay; format: cell-based
[14] = biological target: T2, Cystic fibrosis transmembrane conductance regulator; assay: Potentiation of CFTR F508del mutant (unknown origin) expressed in FRT cells assessed as chloride transport by measuring membrane potential in presence of forskolin; format: cell-based
[15] = biological target: Cystic fibrosis transmembrane conductance regulator (Homo sapiens, UniProt P13569, G551D); assay: Potentiation of CFTR G551D mutant (unknown origin) expressed in FRT cells assessed as chloride transport by measuring membrane potential in presence of forskolin; format: cell-based
[16] = Plasma Protein binding in Sprague-Dawley rat at 5 uM incubated for 4 hrs by rapid equilibrium dialysis; format: ADME, cell-free; settings: read-out: PPB (converted)
[17] = Drug metabolism in Sprague-Dawley rat bile assessed as glutathione adduct M9 formation at 1 mg/kg, po after 24 hrs by LC MS/MS analysis; format: ADME, organism-based; settings: in vivo
[18] = test system: Cystic fibrosis transmembrane conductance regulator (Homo sapiens), P13569 [F508del]; assay: Potentiation of CFTR F508del mutant (unknown origin) expressed in FRT cells assessed as chloride transport by measuring membrane potential in presence of forskolin relative to PG-01; format: cell-based; settings: filed as activator
[19] = test system: Cystic fibrosis transmembrane conductance regulator (Homo sapiens), P13569 [F508del]; assay: Potentiation of CFTR F508del mutant (unknown origin) expressed in CHO cells assessed as chloride transport by measuring membrane potential incubated for 5 to 30 mins in presence of forskolin by Quattro assay relative to PG-01; format: cell-based; design: concentration or dose not given beside the values; settings: filed as activator, time 5-30 min
[20] = Toxicity in Wistar Han rat assessed as NOAEL; settings: in vivo, dose 10 mg/kg
[21] = test system: Cystic fibrosis transmembrane conductance regulator (Homo sapiens), P13569 [F508del]; assay: Potentiation of CFTR F508 deletion mutant (unknown origin) expressed in HBE cells assessed as change in short circuit current in presence of forskolin and amiloride relative to PG-01; format: cell-based; settings: filed as activator
[22] = biological target: T2, Cystic fibrosis transmembrane conductance regulator; assay: Potentiation of CFTR F508 deletion mutant (unknown origin) expressed in HBE cells assessed as change in short circuit current in presence of forskolin and amiloride; format: cell-based
[23] = biological target: T1, Cystic fibrosis transmembrane conductance regulator; assay: Potentiation of wild type CFTR (unknown origin) expressed in HBE cells assessed as change in short circuit current in presence of forskolin and amiloride; format: cell-based
Target sequence in this assay (P13569 whole entry): as the sequence (P13569 whole entry, looked up) above

[24] = biological target: T2, Cystic fibrosis transmembrane conductance regulator; assay: Potentiation of CFTR F508del mutant (unknown origin) expressed in CHO cells assessed as chloride transport by measuring membrane potential preincubated for 5 mins followed by forskolin addition by FLIPR assay; format: cell-based
[25] = Clearance in Sprague-Dawley rat at 5 mg/kg, po or 0.5 mg/kg, iv measured upto 48 hrs by LC-MS/MS analysis; format: ADME, organism-based; settings: in vivo
[26] = Mean residence time in Sprague-Dawley rat at 5 mg/kg, po or 0.5 mg/kg, iv measured upto 48 hrs by LC-MS/MS analysis; format: ADME, organism-based; settings: in vivo
[27] = Volume of distribution at steady state in Sprague-Dawley rat at 5 mg/kg, po or 0.5 mg/kg, iv measured upto 48 hrs by LC-MS/MS analysis; format: ADME, organism-based; settings: in vivo, read-out: Vdss
[28] = test system: Cystic fibrosis transmembrane conductance regulator (Homo sapiens), P13569 [F508del]; assay: Potentiation of CFTR F508del mutant (unknown origin) expressed in CHO cells assessed as chloride transport by measuring membrane potential preincubated for 5 mins followed by forskolin addition by FLIPR assay relative to PG-01; format: cell-based; settings: filed as activator
[29] = Oral bioavailability in Sprague-Dawley rat at 5 mg/kg measured upto 48 hrs by LC-MS/MS analysis; format: ADME, organism-based; settings: in vivo

T2 sequence (P13569 as listed by the source): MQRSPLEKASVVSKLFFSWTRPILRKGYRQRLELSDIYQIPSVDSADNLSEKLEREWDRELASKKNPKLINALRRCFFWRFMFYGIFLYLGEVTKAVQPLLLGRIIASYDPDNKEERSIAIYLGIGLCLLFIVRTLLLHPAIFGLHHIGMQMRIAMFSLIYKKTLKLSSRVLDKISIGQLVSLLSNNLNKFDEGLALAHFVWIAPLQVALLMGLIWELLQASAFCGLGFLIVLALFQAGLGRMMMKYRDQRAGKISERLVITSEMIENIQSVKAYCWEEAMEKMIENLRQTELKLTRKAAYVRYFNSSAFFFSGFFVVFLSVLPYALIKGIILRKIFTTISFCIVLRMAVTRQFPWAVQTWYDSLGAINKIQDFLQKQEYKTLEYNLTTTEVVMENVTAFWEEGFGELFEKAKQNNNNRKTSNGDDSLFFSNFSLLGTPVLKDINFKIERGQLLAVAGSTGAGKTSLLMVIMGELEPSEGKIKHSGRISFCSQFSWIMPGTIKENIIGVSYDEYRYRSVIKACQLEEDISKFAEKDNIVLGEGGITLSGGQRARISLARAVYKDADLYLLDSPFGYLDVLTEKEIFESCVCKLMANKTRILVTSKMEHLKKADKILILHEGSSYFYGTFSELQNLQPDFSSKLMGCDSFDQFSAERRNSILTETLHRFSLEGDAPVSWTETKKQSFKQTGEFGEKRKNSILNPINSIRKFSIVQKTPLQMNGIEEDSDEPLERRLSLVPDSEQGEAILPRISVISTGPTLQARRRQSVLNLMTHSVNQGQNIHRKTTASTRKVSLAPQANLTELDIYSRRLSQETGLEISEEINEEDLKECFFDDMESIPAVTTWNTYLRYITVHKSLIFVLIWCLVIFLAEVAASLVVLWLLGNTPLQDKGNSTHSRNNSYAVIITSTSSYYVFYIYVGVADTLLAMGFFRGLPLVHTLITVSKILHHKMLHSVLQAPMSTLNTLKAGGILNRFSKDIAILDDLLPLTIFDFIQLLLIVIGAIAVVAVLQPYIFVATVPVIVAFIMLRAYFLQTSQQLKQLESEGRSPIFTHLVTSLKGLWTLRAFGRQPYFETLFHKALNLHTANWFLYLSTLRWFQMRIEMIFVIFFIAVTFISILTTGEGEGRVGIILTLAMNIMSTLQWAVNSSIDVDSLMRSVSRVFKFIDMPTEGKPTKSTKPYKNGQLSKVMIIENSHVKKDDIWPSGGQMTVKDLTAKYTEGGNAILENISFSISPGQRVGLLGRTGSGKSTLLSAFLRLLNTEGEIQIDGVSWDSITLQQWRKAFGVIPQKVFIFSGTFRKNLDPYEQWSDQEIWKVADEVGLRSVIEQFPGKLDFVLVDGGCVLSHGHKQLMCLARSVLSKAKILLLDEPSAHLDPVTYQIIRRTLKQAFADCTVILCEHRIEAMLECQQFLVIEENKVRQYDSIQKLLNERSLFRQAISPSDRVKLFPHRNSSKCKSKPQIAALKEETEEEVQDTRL
Sequence of Cystic fibrosis transmembrane conductance regulator (Homo sapiens), P13569 [F508del] (P13569 as listed by the source): as above
Sequence of Cystic fibrosis transmembrane conductance regulator (Homo sapiens, UniProt P13569, G551D) (P13569 whole entry G551D): as the sequence (P13569 whole entry, looked up) above, with G551D counted along it
Sequence of Cystic fibrosis transmembrane conductance regulator (Homo sapiens), P13569 [G551D] (P13569 whole entry G551D): as the sequence (P13569 whole entry, looked up) above, with G551D counted along it

C[C@](O)(CNC(=O)c1nc(Br)c(C(F)(F)F)cc1N)C(F)(F)F
MRT [1]: 6.4 h
Activity [2]: 140%
EC50 [3]: 43 nM
Vd [4]: 6.5 L/kg
Activity [5]: 67%
fCmax [6]: 25 nM
clearance [7]: 17 mL/min/kg
Cmax [8]: 634 nM
bioavailability [9]: 114%
Drug metabolism [10]: Metabolite_Detected
fraction unbound at 4 h ([11]; read-out: PPB (converted)): 0.025
solubility [12]: 140 µg/mL (≈ 341 µM)
EC50 [13]: 15 nM
EC50 [14]: 18 nM
EC50 [15]: 150 nM
fraction unbound at 4 h, 5 µM [16]: 0.031
Drug metabolism [17]: Metabolite_Detected
Activity [18]: 106%
Activity [19]: 107%
NOAEL [20]: < 10 mg/kg
Activity [21]: 113%
EC50 [22]: 25 nM

CC(C)(C)c1cc(C(C)(C)C)c(NC(=O)c2c[nH]c3ccccc3c2=O)cc1O [IVACAFTOR]
EC50 [3]: 70 nM
EC50 [14]: 49 nM
EC50 [15]: 131 nM
EC50 [23]: 34 nM
EC50 [22]: 68 nM

COC(=O)c1cc(-c2ccco2)c(C(F)(F)F)cc1N
EC50 [24]: 920 nM
Activity [2]: 206%
clearance [25]: 30 mL/min/kg
EC50 [3]: 30000 nM
MRT [26]: 0.2 h
solubility [12]: < 1 µg/mL
EC50 [13]: 78 nM
EC50 [14]: 180 nM
Vd [27]: 0.4 L/kg
fraction unbound at 4 h, 5 µM [16]: 0.005
Activity [18]: 100%
Activity [19]: 93%
Activity [28]: 154%
bioavailability [29]: 15%

CN(C)c1nc(C(=O)NCC(C)(O)C(F)(F)F)c(N)cc1C(F)(F)F (stereo in doubt; 31a) [listing 1 of 2 here]
solubility [12]: 165 µg/mL (≈ 441 µM)
EC50 [13]: 20 nM

CN(C)c1nc(C(=O)NCC(C)(O)C(F)(F)F)c(N)cc1C(F)(F)F (stereo in doubt; 31b)
EC50 [13]: 46 nM

C[C@](O)(CNC(=O)c1nc(C(F)(F)F)c(C(F)(F)F)cc1N)C(F)(F)F
MRT [1]: 7.2 h
Vd [4]: 6.4 L/kg
fCmax [6]: 11 nM
clearance [7]: 15 mL/min/kg
Cmax [8]: 595 nM
bioavailability [9]: 75%
PPB ([11]; 4 h): 98.6%
solubility [12]: 82 µg/mL (≈ 205 µM)
EC50 [13]: 9 nM
fraction unbound at 4 h, 5 µM [16]: 0.019
Activity [19]: 113%

CN(C)c1nc(C(=O)NCC(C)(O)C(F)(F)F)c(N)cc1C(F)(F)F (stereo in doubt; 31a) [listing 2 of 2 here]
Activity [19]: 89%

CC(O)CNC(=O)c1nc(Br)c(C(F)(F)F)cc1N (racemic)
solubility [12]: 120 µg/mL (≈ 351 µM)
EC50 [13]: 70 nM
Activity [19]: 79%

CNC(=O)c1cc(-c2ccco2)c(C(F)(F)F)cc1N
solubility [12]: 13 µg/mL (≈ 45.7 µM)
EC50 [13]: 1860 nM
Activity [19]: 83%

CCOc1nc(C(=O)NC[C@](C)(O)C(F)(F)F)c(N)cc1C(F)(F)F
solubility [12]: 60 µg/mL (≈ 160 µM)
EC50 [13]: 15 nM
Activity [19]: 116%

C[C@@](O)(CNC(=O)c1nc(Br)c(C(F)(F)F)cc1N)C(F)(F)F
solubility [12]: 16 µg/mL (≈ 39 µM)
EC50 [13]: 30 nM
Activity [19]: 91%

COC(=O)c1nc(-c2ccco2)c(C(F)(F)F)cc1N
solubility [12]: 11 µg/mL (≈ 38.4 µM)
EC50 [13]: 5310 nM
Activity [19]: 72%

CCc1nc(C(=O)NCC(C)(O)C(F)(F)F)c(N)cc1C(F)(F)F (stereo in doubt; 28b)
Activity [19]: 101%

Nc1cc(C(F)(F)F)c(Br)nc1C(=O)NCC(O)(C(F)(F)F)C(F)(F)F
solubility [12]: 3 µg/mL (≈ 6.46 µM)
EC50 [13]: 10 nM
Activity [19]: 117%

CC(C)c1ccc(NC(=O)C(c2ccccc2)N(C)C(=O)Cc2c[nH]c3ccccc23)cc1 (stereo unspecified)
EC50 [24]: 390 nM
EC50 [3]: 990 nM
EC50 [13]: 1250 nM
EC50 [14]: 260 nM

Cc1nc(C(=O)NCC(C)(O)C(F)(F)F)c(N)cc1C(F)(F)F (racemic)
EC50 [13]: 240 nM
Activity [19]: 99%

Nc1cc(C(F)(F)F)c(Br)nc1C(=O)NCCC(F)(F)F
solubility [12]: 49 µg/mL (≈ 129 µM)
EC50 [13]: 40 nM
Activity [19]: 132%

COC(=O)c1ccccc1N [METHYL ANTHRANILATE]
EC50 [13]: 30000 nM

CNc1nc(C(=O)NCC(C)(O)C(F)(F)F)c(N)cc1C(F)(F)F (stereo in doubt; 30b)
EC50 [13]: 111 nM
